ChEMBL document CHEMBL3785028 (J Med Chem, 2016)

What was measured:
Type in all cases: ADME, organism-based
Conditions in all cases: in vivo
[1] = Volume of distribution in rat at 1 mg/kg, iv
[2] = Half life in mouse at 30 mg/kg, po
[3] = AUC(0 to infinity) in mouse at 30 mg/kg, po; design: dose 30 mg/kg, route oral, time infinity
[4] = Oral bioavailability in rat at 2 mg/kg
[5] = Half life in rat at 1 mg/kg, iv
[6] = Clearance in rat at 1 mg/kg, iv
[7] = Half life in rat at 2 mg/kg, po
[8] = Cmax in rat at 2 mg/kg, po; design: dose 2 mg/kg, route oral
[9] = AUC in rat at 2 mg/kg, po

Row | Vd [1] [L/kg] | half-life [2] [h] | AUC(0-inf) [3] [ng·h/mL] | bioavailability [4] [%] | half-life [5] [h] | clearance [6] [mL/min/kg] | half-life [7] [h] | Cmax [8] [ng/mL] | AUC [9] [ng·h/mL] | SMILES
1 | 2.2 | 1.5 | 2000 | 75 | 0.85 | 57 | 1.9 |  |  | CN1C(=O)[C@@H](NC(=O)c2cc(Cc3ccccc3)on2)CNc2ccccc21
2 |  |  |  |  |  |  | 2.9 | 810 | 2200 | O=C(N[C@H]1COc2ccccc2NC1=O)c1cc(Cc2ccccc2)on1
